Experimental findings from patent US6835755B1, “Naphthoquinone derivatives and their use in the treatment and control of tuberculosis” (priority 1999, dated 2004) are described below.

The subject of the test is Mycobacterium tuberculosis sensitive strain (H37Rv). Description: microbe, parasite or virus in culture. Format: cell-based. The note with it: for ΔGI values of plant extracts: at MIC, mean ± s.d.

Values after ≈ are worked out from the molar mass of the structure shown.

Consider `Cc1cc(O)c2c(c1)C(=O)C=CC2=O` [7-methyljuglone, 5-hydroxy-7-methyl-1,4-naphtoquinone], for which the “ΔGI values of plant extracts” value (H37Rv sensitive strain ATCC27294) is given as 0 ± 1. Also, for the setting “H37Rv sensitive strain ATCC27294, radiometric method”, the “MIC (Minimal inhibitory concentration)” value was 50 µg/mL (≈ 266 µM).
With `Cc1cc(O)c2c(c1)C(=O)C(c1c(C)cc3c(c1O)C(=O)C=CC3=O)=CC2=O` [diospyrin, 5,5′ dihydroxy 7,7′ binaphthoquinone], the “ΔGI values of plant extracts” value (H37 sensitive strain) was −1 ± 1.41. Where the note is “Mycobacterium tuberculosis, H37RV, H37 sensitive strain, radiometric method”, the MIC turned out to be 100 µg/mL (≈ 267 µM).
